We go through nine compounds from patent publication US4939175A, “Use of N,N-dimethyl-1-[1-(4-chlorophenyl)cyclobutyl]-3-methylbutylamine” (priority 1988, dated 1990).

Like-named read-outs stand apart in the source and are kept apart here.

In data set [1] the test system is re-uptake of ^3 H-dopamine. Description: Re-uptake of 3H-dopamine in vitro (synaptosomes, P2 fraction of whole brain). Format: biochemical, Std: Wistar strain male rat. As to conditions: rat brain synaptosomes, 37° C., 20 minutes. As to the method:
Effect of the test samples on the re-uptake of ^3 H-dopamine in vitro
P2 fraction was prepared from the whole brain of Std: Wistar strain male rat. […] The obtained mixture was incubated at 37° C. for 20 minutes and then subjected to the suction filtration with Whatman GF/B filter paper.
The obtained filter paper was put in a vial containing 10 ml of toluene type scintillator and its radioactivity was measured by means of liquid scintillation counter. The amount of the specific re-uptake of ^3 H-dopamine was obtained by subtracting the amount of re-uptake at 0° C. as blank.

Data set [2] relates to depletion of dopamine induced by MPTP in mice whole brain. Description: animal or person. The class given is in vivo, SlC: ddy strain male mice. As to conditions: Mus musculus, po, 168 h, read-out: Percentage of the amount of dopamine in the treated group against the amount of dopamine in the non-treated group.
Data set [3] deals with depletion of serotonin induced by p-chloroamphetamine. Description: Depletion of serotonin (5-HT) induced by p-chloroamphetamine (whole brain). Format: in vivo, SlC:ddy mice. To be noted: p-chloroamphetamine 10 mg/kg i.p., control 48 ± 6, **p < 0.01. Here is the method: Effect of the test samples on the depletion of serotonin (hereinafter referred to as "5-HT") induced by p-chloroamphetamine
The test sample was administered orally to SlC:ddy made mice and after 60 minutes, p-chloroamphetamine (10 mg/kg) was injected intraperitoneally.
At 6 hours later, the mice were decapitated. The whole brain was rapidly removed and homogenized in 0.06M perchloric acid with N-methylserotonin (10 μg/ml) as an internal standard. The homogenate was centrifuged and then the amount of 5-HT in the supernatant was determined by high performance liquid chromatography with electrochemical detection.
Amitriptyline was used as the reference drug and distilled water was used as control sample.

Data set [4] deals with inhibition of conditioned avoidance response induced by reserpine in rats. Briefly: Inhibition of conditioned avoidance response induced by reserpine in rats. The class given is in vivo, Std-Wistar male rats. To be noted: for Conditioned avoidance response 1 hour after administration of the test sample: reserpine 1 mg/kg, control 2; for Conditioned avoidance response before administration of reserpine: baseline before test sample; for Conditioned avoidance response 18 to 20 hours after administration of reserpine: reserpine 1 mg/kg i.p., before test sample. Here is the method: Effect of the test samples on the inhibition of conditioned avoidance response induced by reserpine in rats
Std-Wistar male rats (8 to 9 week age) weighing of 270 to 300 g were fed under the conditions of 23±2° C., 60±10% R.H. and artificial lighting from 7 AM to 7 PM for a week, and then subjected to the test.
The test was carried out by using a shuttle box. The shuttle box used herein was a rectangular box, which was equipped with a buzzer for conditioned stimulus at the upper part and grids of 2 mm in diameter, for non-conditioned stimulus, at intervals of 1 cm on the floor, and divided into two equal sized compartments by a hurdle of 5 cm in height.
The schedule for inducing the conditioned avoidance response was controlled by a computer, and all the observed results of avoidance or escape response were recorded automatically.
The avoidance condition was carried out as follows:
After the conditioned stimulus of the buzzer with sound signal for 5 seconds, the non-conditioned stimulus of the foot shock was given for 5 seconds to rats. Each stimulus was stopped immediately, if the rat jumped over the hurdle to the other compartment during the conditioned or non-conditioned stimulus.
The above-mentioned rats were put on the trials for 25 times. Then the rats were given reserpine (1 mg/kg, intraperitoneally). The rats were tested for 15 times at the time of 18 to 20 hours after the reserpine administration, and then they were divided into several groups ([…]).
The test sample was dissolved in distilled water and administered orally to each group at 24 to 26 hours after the reserpine administration. For reference, distilled water as control sample, and amitriptyline and amantadine as test drugs were used.
At one hour after the test sample administration, the rats were put on the trials for 25 times and the conditioned avoidance responce was compared between the control group (distilled water administration), the test compound-administered group and the test drug-administered groups.

Data set [5] relates to depletion of norepinephrine induced by 6-hydroxydopamine in rat heart. Briefly: Depletion of norepinephrine induced by 6-hydroxydopamine in rat heart. The class given is in vivo, Std: Wistar male rats. As to conditions: 6-hydroxydopamine 20 mg/kg i.p., control 20 ± 4, non-treatment 425 ± 49, **p < 0.01. Here is the method:
Effect of the test samples on the depletion of norepinephrine induced by 6-hydroxydopamine in rat heart.
The test sample was administered orally to Std: Wistar male rats and after 30 minutes, 6-hydroxydopamine (20 mg/kg) was injected intraperitoneally.
At 16 hours after injection of 6-hydroxydopamine, the rats were killed. The whole heart was rapidly removed and homogenized in 0.05M perchloric acid with isoproterenol (10 mg/ml) as an internal standard. The homogenate was centrifuged and then the amount of norepinephrine in the supernatant was determined by means of high performance liquid chromatography with electrochemical detection.
Desipramine was used as the reference drug and distilled water was used as control sample.

Data set [6] is described as follows: Acute toxicity, oral, mice. On the set-up: species or system SlC:ddy male mice. To be noted: mouse, in vivo, read-out: Number of dead mice per 10 mice. As to the method: SlC:ddy male mice (10 heads/group) were used.
After the oral administration of the test smaple, desipramine was used as the test drug, to the mice, the number of the dead mice was counted at 0.5, 1, 2, 4, 18 and 24 hours respectively after the oral administration.

Data set [7] concerns circling behavior in rats with unilateral substantia nigra lesions. Briefly: Circling behavior in rats with unilateral substantia nigra lesions. The class given is in vivo, Std: Wistar male rats. To be noted: 50 mg/kg oral, 2 hours after; control 0.1 ± 0.4. As to the method: Effect of the test samples on circling behavior in rats with unilateral substantia nigra lesions
Std: Wistar male rats (8 heads/group) were used. The rat with unilateral substantia nigra lesions was made by injecting 8 μg/4 μl of 6-hydroxydopamine to the right side of substantia nigra.
The test sample was administered orally to the rat. At 2 hours later, the number of circling behavior per 10 minutes was counted.
Amantadine was used as the reference drug and distilled water was used as control sample.

The mark [8] stands for this setting: Experiment I, 10 mg/kg oral, MPTP 50 mg/kg s.c., control 71 ± 11, *P < 0.05, **P < 0.01.
The mark [9] stands for this setting: Experiment I, 30 mg/kg oral, MPTP 50 mg/kg s.c., control 71 ± 11, *P < 0.05, **P < 0.01.

The IC50 is the point on the concentration scale where inhibition reaches its midpoint. Read a low IC50 as inhibition by little substance.

In the case of `CN(C)CCC=C1c2ccccc2CCc2ccccc21` [Amitriptyline, amitriptyline], the figures for the IC50 in data set [1] (Experiment I) and in data set [1] (Experiment II) were 7.7 µM and 8.2 µM, respectively. Further, the response vs control in vivo at 10 mg/kg in data set [2] (setting [8]) turned out to be 81 ± 15%. The response vs control in vivo at 30 mg/kg in data set [2] (setting [9]) came out at 77 ± 15%. Besides, the “Percentages of the amount of 5-HT in the treated group against the amount of 5-HT in the non-treated group” value in data set [3] (10 mg/kg oral) is 50 ± 4%; in data set [3] (30 mg/kg oral), 56 ± 10%; in data set [3] (90 mg/kg oral), 92 ± 8%. Besides, the “Conditioned avoidance response 1 hour after administration of the test sample” value in data set [4] (10 mg/kg oral) is 1%; in data set [4] (40 mg/kg oral), 0%. In addition, the “Conditioned avoidance response before administration of reserpine” value in data set [4] (10 mg/kg group) is on record as 93%; in data set [4] (40 mg/kg group) it was 94%. In addition, the “Conditioned avoidance response 18 to 20 hours after administration of reserpine” value came out at 1% in data set [4] (10 mg/kg group) and 7% in data set [4] (40 mg/kg group).
In data set [1] (Experiment II), `CN(C)CCCN1c2ccccc2CCc2ccccc21` [Imipramine, imipramine] registered an IC50 of 15 µM.
On to `CN[C@@H](C)Cc1ccccc1` [Methamphetamine, methamphetamine], for which the response vs control in vivo at 3 mg/kg in data set [2] (Experiment I, 3 mg/kg oral, MPTP 50 mg/kg s.c., control 71 ± 11, *P < 0.05, **P < 0.01) worked out at 97 ± 14%; in data set [2] (Experiment II, 3 mg/kg oral, MPTP 50 mg/kg s.c., control 88 ± 20, *P < 0.05), 102 ± 21%; in data set [2] it was 91 ± 20%.
With `CNCCCN1c2ccccc2CCc2ccccc21` [Desipramine, desipramine], the “Amount of Norepinephrine” value in data set [5] (0.625 mg/kg oral) is 35 ± 4 ng/g. In data set [5] (1.25 mg/kg oral), the “Amount of Norepinephrine” value came to 74 ± 26 ng/g. Further, in data set [5] (2.5 mg/kg oral), the “Amount of Norepinephrine” value amounted to 211 ± 79 ng/g. In data set [6] (200 mg/kg oral), the mortality at 0.5 h was found to be 0%, the mortality at 1 h is 0%, the mortality at 2 h is 0% and the mortality at 4 h is 0%. Also, in data set [6] (200 mg/kg oral), the mortality at 18 h amounted to 0% and the mortality at 24 h worked out at 0%. In addition, in data set [6] (800 mg/kg oral), the mortality at 0.5 h was 100%, the mortality at 1 h stood at 100%, the mortality at 2 h was 100% and the mortality at 4 h turned out to be 100%. In data set [6] (800 mg/kg oral), the mortality at 18 h was 100% and the mortality at 24 h was 100%. The response vs control in vivo at 10 mg/kg in data set [2] (setting [8]) was determined as 74 ± 15%. Besides, in data set [2] (setting [9]), the response vs control in vivo at 30 mg/kg was 79 ± 18%.
With `CN(C)CC/C=C1\c2ccccc2CSc2ccccc21` [Dosulepin, dosulepin], the response vs control in vivo at 10 mg/kg in data set [2] (setting [8]) amounted to 70 ± 13%. Further, the response vs control in vivo at 30 mg/kg in data set [2] (setting [9]) was 77 ± 12%.
`NC12CC3CC(CC(C3)C1)C2` [Amantadine, amantadine]: in data set [2] (Experiment II, 10 mg/kg oral, MPTP 50 mg/kg s.c., control 88 ± 20, *P < 0.05), the response vs control in vivo at 10 mg/kg was 77 ± 21%. Further, in data set [2] (Experiment II, 30 mg/kg oral, MPTP 50 mg/kg s.c., control 88 ± 20, *P < 0.05), the response vs control in vivo at 30 mg/kg worked out at 64 ± 16%. Further, the “Number of circling behavior per 10 min.” value in data set [7] worked out at 0.4 ± 0.7 per 10 min. Further, the results for the “Conditioned avoidance response 1 hour after administration of the test sample” value in data set [4] (10 mg/kg oral) and in data set [4] (50 mg/kg oral) were 2% and 38%, respectively. The “Conditioned avoidance response before administration of reserpine” value in data set [4] (10 mg/kg group) is reported as 94%; in data set [4] (50 mg/kg group), 95%. Moreover, the “Conditioned avoidance response 18 to 20 hours after administration of reserpine” value in data set [4] (10 mg/kg group) and in data set [4] (50 mg/kg group) was 3% in each case.
With `CN1CCN2c3ccccc3Cc3ccccc3C2C1` (stereo not drawn) [Mianserin, mianserin], in data set [2], the response vs control in vivo at 10 mg/kg is 72 ± 16% and the response vs control in vivo at 30 mg/kg was 69 ± 8%.
Turning to `CNCCCC12CCC(c3ccccc31)c1ccccc12` [Maprotiline, maprotiline], in data set [2], the response vs control in vivo at 10 mg/kg is 65 ± 17% and the response vs control in vivo at 30 mg/kg was found to be 74 ± 17%.
The matching figures for `CN(C)CCCN1c2ccccc2CCc2ccc(Cl)cc21` [Clomipramine, clomipramine]: 74 ± 13% and 74 ± 14%.
